What was measured:
Assay type in all cases: cell-based, human
TMPRSS2 mRNA = assay: TMPRSS2 expression in C4-2 cells; details: 48 hrs; for Percent inhibition of TMPRSS2 expression: C4-2 cells, CSS + DHT medium
Description: Cells were plated at 1,000 cells per well. […] After an incubation period of 48 hrs, RNA levels of AR, PSA and TMPRSS2 were measured.
Cells were plated at 2,000 cells per well and cultured in CSS media with 1 nM DHT. […] After an incubation period of 48 hrs, RNA levels of AR, PSA and TMPRSS2 were measured.

VCaP cells = assay: VCaP apoptosis (Caspase-Glo 3/7); details: complete medium, 72 hours; for Apoptosis (% untreated control): VCaP cells
Description: After a treatment period of 72 hours in complete medium, apoptosis of the cancer cells was measured with Caspase-Glo 3/7 assay (Promega). Results are presented in Tables 117 and 118 as percent apoptosis of the cells, relative to non-treated cells.

AR mRNA [1] = assay: Time-course AR mRNA expression in C4-2B cells (8, 24, 48 hours); details: for Percent expression of AR compared to the control group in 8 hours / Percent expression of AR compared to the control group in 48 hours / Percent expression of AR compared to the control group in 24 hours: C4-2B cells
Description: C4-2B cells were plated at 1,000 cells per well in complete medium. […] After a treatment period of 8 hours, 24 hours, and 48 hours, AR expression was measured with primer probe set hAR-LTS00943.

AR mRNA [2] = assay: AR RNA expression in C4-2B cells (complete, CSS+DHT medium; Example 30); details: 48 hrs
Description: Cells were plated at 1,000 cells per well. […] ISIS 549148 was included as a negative control. […] After an incubation period of 48 hrs, RNA levels of AR, PSA and TMPRSS2 were measured.
Cells were plated at 2,000 cells per well and cultured in CSS media with 1 nM DHT. […] ISIS 549148 was included as a negative control. […] After an incubation period of 48 hrs, RNA levels of AR, PSA and TMPRSS2 were measured. In the absence of DHT, AR expression in C4-2 cells was 188%, PSA expression was 43% and TMPRSS2 expression was 27% compared to the untreated control.

PSA mRNA = assay: PSA expression in VCaP cells; details: RNAiMax, 48 hrs
Description: Cells were plated at 10,000 cells per well. […] After an incubation period of 48 hrs, RNA levels of full length AR, the V7 variant, PSA and TMPRSS2 were measured.
(§1) After an incubation period of 48 hrs, RNA levels of full length AR, the V7 variant, PSA and TMPRSS2 were measured. The data is presented in Tables 108 expressed as percent expression of gene levels compared to the untreated control.
Cells were plated at 15,000 cells per well and cultured in CSS media for 16 hours. […] After 4 hrs, 1 nM DHT was added. […] After an incubation period of 48 hrs, RNA levels of AR, PSA and TMPRSS2 were measured.

AR V7 variant mRNA [3] = assay: AR V7 variant RNA in VCaP cells; details: RNAiMax, 48 hrs
Description: Cells were plated at 10,000 cells per well. […] ISIS 549148 was included as a negative control. After an incubation period of 48 hrs, RNA levels of full length AR, the V7 variant, PSA and TMPRSS2 were measured.
as §1, with “A separate set of cells was treated with MDV-3100 at 0.04 μM, 0.2 μM, 1.0 μM, or 5.0 μM. After” for “After”
Cells were plated at 15,000 cells per well and cultured in CSS media for 16 hours. […] ISIS 549148 was included as a negative control. After 4 hrs, 1 nM DHT was added. […] After an incubation period of 48 hrs, RNA levels of AR, PSA and TMPRSS2 were measured. […]

AR V7 variant mRNA [4] = assay: AR V7 variant RNA in 22RV1 cells; details: RNAiMax, 48 hrs

TGATTTAATGGTTGCA [ISIS 569236] (cEt/MOE gapmer chemistry, further chemistry not given here) [targets intron 1]
Percent inhibition of TMPRSS2 expression (TMPRSS2 mRNA; 0.04 μM): 0%
Percent inhibition of TMPRSS2 expression (TMPRSS2 mRNA; 0.2 μM): 11%
Percent inhibition of TMPRSS2 expression (TMPRSS2 mRNA; 1 μM): 61%
Percent inhibition of TMPRSS2 expression (TMPRSS2 mRNA; 5.0 μM): 67%
Percent inhibition of TMPRSS2 expression in C4-2 cells cultured in complete medium (TMPRSS2 mRNA; 0.04 μM): 17%
Percent inhibition of TMPRSS2 expression in C4-2 cells cultured in complete medium (TMPRSS2 mRNA; 0.2 μM): 54%
Percent inhibition of TMPRSS2 expression in C4-2 cells cultured in complete medium (TMPRSS2 mRNA; 1 μM): 67%
Percent inhibition of TMPRSS2 expression in C4-2 cells cultured in complete medium (TMPRSS2 mRNA; 5.0 μM): 67%
Apoptosis (% untreated control) (VCaP cells; 1.34 nM): 176 % untreated control
Apoptosis (% untreated control) (VCaP cells; 4.0 nM): 293 % untreated control
Apoptosis (% untreated control) (VCaP cells; 13.4 nM): 402 % untreated control
Apoptosis (% untreated control) (VCaP cells; 40 nM): 581 % untreated control
apoptosis of VCaP cells (VCaP cells): increased apoptosis of the cells in a dose dependent compared to the control
Percent expression of AR compared to the control group in 8 hours (AR mRNA [1]; 0.04 μM): 100%
Percent expression of AR compared to the control group in 48 hours (AR mRNA [1]; 0.04 μM): 80%
Percent expression of AR compared to the control group in 8 hours (AR mRNA [1]; 0.2 μM): 87%
Percent expression of AR compared to the control group in 24 hours (AR mRNA [1]; 0.2 μM): 35%
Percent expression of AR compared to the control group in 48 hours (AR mRNA [1]; 0.2 μM): 19%
Percent expression of AR compared to the control group in 8 hours (AR mRNA [1]; 1 μM): 84%
Percent expression of AR compared to the control group in 24 hours (AR mRNA [1]; 1 μM): 15%
Percent expression of AR compared to the control group in 48 hours (AR mRNA [1]; 1 μM): 7%
Percent expression of AR compared to the control group in 8 hours (AR mRNA [1]; 5.0 μM): 58%
Percent expression of AR compared to the control group in 24 hours (AR mRNA [1]; 5.0 μM): 5%
Percent expression of AR compared to the control group in 48 hours (AR mRNA [1]; 5.0 μM): 2%
AR expression (AR mRNA [1]; C4-2B cells, 8, 24 and 48 hours): reduced AR expression in the cells relative to the control set
Percent expression of AR (AR mRNA [2]; CSS + DHT medium, 0.04 μM): 67%
Percent expression of AR (AR mRNA [2]; CSS + DHT medium, 0.2 μM): 49%
Percent expression of AR (AR mRNA [2]; CSS + DHT medium, 1 μM): 24%
Percent expression of AR (AR mRNA [2]; CSS + DHT medium, 5.0 μM): 19%
Percent expression of AR (AR mRNA [2]; complete medium, 0.04 μM): 61%
Percent expression of AR (AR mRNA [2]; complete medium, 0.2 μM): 23%
Percent expression of AR (AR mRNA [2]; complete medium, 1 μM): 20%
Percent expression of AR (AR mRNA [2]; complete medium, 5.0 μM): 16%
Percent inhibition of PSA expression (PSA mRNA; CSS + DHT medium, 1.34 nM): 8%
Percent inhibition of PSA expression (PSA mRNA; CSS + DHT medium, 4.0 nM): 25%
Percent inhibition of PSA expression (PSA mRNA; CSS + DHT medium, 13.4 nM): 62%
Percent inhibition of PSA expression (PSA mRNA; CSS + DHT medium, 40 nM): 74%
Percent inhibition of PSA expression (PSA mRNA; complete medium, 1.34 nM): 7%
Percent inhibition of PSA expression (PSA mRNA; complete medium, 4.0 nM): 19%
Percent inhibition of PSA expression (PSA mRNA; complete medium, 13.4 nM): 40%
Percent inhibition of PSA expression (PSA mRNA; complete medium, 40 nM): 52%
Percent inhibition of AR V7 variant (AR V7 variant mRNA [3]; CSS + DHT medium, 1.34 nM): 37%
Percent inhibition of AR V7 variant (AR V7 variant mRNA [3]; CSS + DHT medium, 4.0 nM): 33%
Percent inhibition of AR V7 variant (AR V7 variant mRNA [3]; CSS + DHT medium, 13.4 nM): 48%
Percent inhibition of AR V7 variant (AR V7 variant mRNA [3]; CSS + DHT medium, 40 nM): 39%
Percent inhibition of AR V7 variant (AR V7 variant mRNA [3]; complete medium, 1.34 nM): 0%
Percent inhibition of AR V7 variant (AR V7 variant mRNA [3]; complete medium, 4.0 nM): 40%
Percent inhibition of AR V7 variant (AR V7 variant mRNA [3]; complete medium, 13.4 nM): 53%
Percent inhibition of AR V7 variant (AR V7 variant mRNA [3]; complete medium, 40 nM): 80%
Percent inhibition of AR V7 variant (AR V7 variant mRNA [4]; CSS + DHT medium, 1.34 nM): 54%
Percent inhibition of AR V7 variant (AR V7 variant mRNA [4]; CSS + DHT medium, 4.0 nM): 88%
Percent inhibition of AR V7 variant (AR V7 variant mRNA [4]; CSS + DHT medium, 13.4 nM): 97%
Percent inhibition of AR V7 variant (AR V7 variant mRNA [4]; complete medium, 1.34 nM): 30%
Percent inhibition of AR V7 variant (AR V7 variant mRNA [4]; complete medium, 4.0 nM): 2%
Percent inhibition of AR V7 variant (AR V7 variant mRNA [4]; complete medium, 13.4 nM): 46%
Percent inhibition of AR V7 variant (AR V7 variant mRNA [4]; complete medium, 40 nM): 81%

From patent USRE48461E1, “Modulation of androgen receptor expression” (Ionis Pharmaceuticals, Inc., priority 2012, dated 2021)
